{"source": "the kinase profiling compilation of Christmann-Franck et al. (2016)", "test_in_all_cases": "KINOMEscan competition binding", "conditions_in_all_cases": "compound 10.0 µM", "key": {"[1]": {"molecular_target": "RPS6KA1 KD2 (human) (UniProt Q15418)"}, "[2]": {"molecular_target": "MKNK2 (human) (UniProt Q9HBH9)"}, "[3]": {"molecular_target": "NEK2 (human) (UniProt P51955)", "sequence (P51955 whole entry, looked up)": "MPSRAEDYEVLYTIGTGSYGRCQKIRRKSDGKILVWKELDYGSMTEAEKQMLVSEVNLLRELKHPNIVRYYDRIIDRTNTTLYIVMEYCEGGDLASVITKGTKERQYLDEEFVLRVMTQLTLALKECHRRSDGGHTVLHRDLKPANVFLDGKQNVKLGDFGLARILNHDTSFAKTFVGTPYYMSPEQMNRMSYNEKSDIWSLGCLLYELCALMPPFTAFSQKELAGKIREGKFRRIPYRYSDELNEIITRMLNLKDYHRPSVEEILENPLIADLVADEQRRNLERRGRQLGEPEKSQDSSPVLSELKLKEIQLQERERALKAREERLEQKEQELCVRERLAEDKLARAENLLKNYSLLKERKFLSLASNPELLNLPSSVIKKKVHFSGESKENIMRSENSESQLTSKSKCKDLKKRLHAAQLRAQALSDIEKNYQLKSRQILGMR"}, "[4]": {"molecular_target": "EGFR (human) (UniProt P00533)"}, "[5]": {"molecular_target": "FLT1 (human) (UniProt P17948)"}, "[6]": {"molecular_target": "BMPR1A (human) (UniProt P36894)"}, "[7]": {"molecular_target": "ACVR2A (human) (UniProt P27037)"}, "[8]": {"molecular_target": "TNK2 (human) (UniProt Q07912)", "sequence (Q07912 whole entry, looked up)": "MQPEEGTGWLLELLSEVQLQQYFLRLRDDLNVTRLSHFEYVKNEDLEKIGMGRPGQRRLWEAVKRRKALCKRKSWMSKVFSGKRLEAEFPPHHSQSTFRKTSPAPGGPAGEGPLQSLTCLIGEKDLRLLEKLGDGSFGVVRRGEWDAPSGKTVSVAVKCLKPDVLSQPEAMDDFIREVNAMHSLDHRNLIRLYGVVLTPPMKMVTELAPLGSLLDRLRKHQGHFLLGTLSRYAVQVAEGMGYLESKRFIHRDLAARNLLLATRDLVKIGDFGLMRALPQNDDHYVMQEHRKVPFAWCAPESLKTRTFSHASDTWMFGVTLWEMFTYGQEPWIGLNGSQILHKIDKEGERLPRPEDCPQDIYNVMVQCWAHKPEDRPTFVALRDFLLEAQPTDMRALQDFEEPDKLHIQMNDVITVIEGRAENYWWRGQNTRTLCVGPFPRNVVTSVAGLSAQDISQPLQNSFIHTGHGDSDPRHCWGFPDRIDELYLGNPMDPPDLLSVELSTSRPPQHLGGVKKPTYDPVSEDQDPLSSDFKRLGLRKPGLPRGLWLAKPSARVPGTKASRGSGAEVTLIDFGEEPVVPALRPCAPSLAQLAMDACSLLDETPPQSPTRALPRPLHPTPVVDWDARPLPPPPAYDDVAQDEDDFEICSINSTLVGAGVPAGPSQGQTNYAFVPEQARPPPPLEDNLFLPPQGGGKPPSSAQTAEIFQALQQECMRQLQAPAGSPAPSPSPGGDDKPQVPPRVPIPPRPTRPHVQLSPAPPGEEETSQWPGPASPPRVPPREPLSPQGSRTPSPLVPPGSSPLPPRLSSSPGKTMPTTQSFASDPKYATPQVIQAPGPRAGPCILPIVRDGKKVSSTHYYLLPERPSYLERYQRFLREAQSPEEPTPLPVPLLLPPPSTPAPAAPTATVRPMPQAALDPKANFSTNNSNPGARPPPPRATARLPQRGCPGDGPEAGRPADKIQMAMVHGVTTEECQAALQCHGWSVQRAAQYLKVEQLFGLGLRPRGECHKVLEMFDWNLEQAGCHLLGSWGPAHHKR"}, "[9]": {"molecular_target": "CDK17 (human) (UniProt Q00537)"}, "[10]": {"molecular_target": "ACVR2B (human) (UniProt Q13705)"}, "[11]": {"molecular_target": "NEK1 (human) (UniProt Q96PY6)"}, "[12]": {"molecular_target": "FGFR3 (human) (UniProt P22607)"}, "[13]": {"molecular_target": "MYO3B (human) (UniProt Q8WXR4)"}, "[14]": {"system": "ABL1 (human), P00519 [M351T]"}, "[15]": {"molecular_target": "CDK13 (human) (UniProt Q14004)"}, "[16]": {"system": "RET (human), P07949 [V804M]", "sequence (P07949 whole entry V804M, looked up)": "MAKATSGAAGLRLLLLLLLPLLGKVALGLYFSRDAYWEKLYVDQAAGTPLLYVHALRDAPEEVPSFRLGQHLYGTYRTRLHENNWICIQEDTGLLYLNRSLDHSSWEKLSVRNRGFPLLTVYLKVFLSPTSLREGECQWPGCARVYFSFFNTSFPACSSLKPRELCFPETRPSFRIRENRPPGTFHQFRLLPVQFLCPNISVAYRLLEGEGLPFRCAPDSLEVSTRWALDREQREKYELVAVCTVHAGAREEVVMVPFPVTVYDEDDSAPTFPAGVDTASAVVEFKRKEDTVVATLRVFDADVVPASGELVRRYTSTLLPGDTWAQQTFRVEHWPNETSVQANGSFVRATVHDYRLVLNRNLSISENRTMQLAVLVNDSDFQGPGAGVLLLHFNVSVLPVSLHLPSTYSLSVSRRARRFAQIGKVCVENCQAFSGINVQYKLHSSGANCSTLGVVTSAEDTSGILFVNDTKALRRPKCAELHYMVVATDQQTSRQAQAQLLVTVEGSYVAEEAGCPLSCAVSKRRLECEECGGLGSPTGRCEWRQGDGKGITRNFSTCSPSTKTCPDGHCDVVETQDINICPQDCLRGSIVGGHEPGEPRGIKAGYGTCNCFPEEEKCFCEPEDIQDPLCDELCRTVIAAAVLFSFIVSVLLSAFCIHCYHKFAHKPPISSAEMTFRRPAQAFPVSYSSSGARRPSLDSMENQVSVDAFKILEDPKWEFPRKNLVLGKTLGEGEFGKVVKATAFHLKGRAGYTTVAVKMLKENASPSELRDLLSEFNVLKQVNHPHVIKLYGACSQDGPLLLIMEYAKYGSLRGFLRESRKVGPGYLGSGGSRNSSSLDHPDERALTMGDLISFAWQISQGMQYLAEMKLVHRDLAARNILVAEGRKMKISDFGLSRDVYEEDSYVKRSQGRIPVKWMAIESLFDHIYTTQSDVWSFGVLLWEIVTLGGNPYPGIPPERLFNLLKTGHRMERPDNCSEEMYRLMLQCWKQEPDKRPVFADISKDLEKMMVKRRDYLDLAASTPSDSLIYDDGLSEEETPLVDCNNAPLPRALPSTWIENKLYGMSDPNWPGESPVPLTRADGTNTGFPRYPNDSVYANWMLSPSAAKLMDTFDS"}, "[17]": {"molecular_target": "MAP3K15 (human) (UniProt Q6ZN16)"}, "[18]": {"molecular_target": "TNIK (human) (UniProt Q9UKE5)"}, "[19]": {"molecular_target": "PDGFRA (human) (UniProt P16234)"}, "[20]": {"system": "RET (human), P07949 [M918T]"}, "[21]": {"molecular_target": "PRKG1 (human) (UniProt Q13976)"}, "[22]": {"molecular_target": "PRKCQ (human) (UniProt Q04759)"}, "[23]": {"molecular_target": "ACVR1 (human) (UniProt Q04771)"}, "[24]": {"molecular_target": "MINK1 (human) (UniProt Q8N4C8)"}, "[25]": {"molecular_target": "TEK (human) (UniProt Q02763)"}, "[26]": {"molecular_target": "STK3 (human) (UniProt Q13188)"}, "[27]": {"molecular_target": "MARK4 (human) (UniProt Q96L34)"}, "[28]": {"molecular_target": "CAMK2D (human) (UniProt Q13557)", "sequence (Q13557 whole entry, looked up)": "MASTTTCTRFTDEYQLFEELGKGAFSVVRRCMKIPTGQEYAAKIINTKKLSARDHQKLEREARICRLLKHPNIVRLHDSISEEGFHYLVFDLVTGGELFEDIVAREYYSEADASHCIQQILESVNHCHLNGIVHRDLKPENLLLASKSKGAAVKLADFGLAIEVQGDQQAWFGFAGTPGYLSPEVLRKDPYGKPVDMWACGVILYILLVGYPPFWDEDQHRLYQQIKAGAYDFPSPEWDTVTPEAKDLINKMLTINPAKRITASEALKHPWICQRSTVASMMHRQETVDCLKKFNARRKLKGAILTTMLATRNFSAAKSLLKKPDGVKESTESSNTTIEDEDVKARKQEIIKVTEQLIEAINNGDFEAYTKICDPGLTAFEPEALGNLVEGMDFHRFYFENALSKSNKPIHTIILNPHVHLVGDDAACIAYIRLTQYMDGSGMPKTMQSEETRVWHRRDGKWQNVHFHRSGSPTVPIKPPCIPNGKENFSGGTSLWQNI"}, "[29]": {"molecular_target": "PKN3 (M.tuberculosis) (UniProt Q6P5Z2)", "sequence (Q6P5Z2 whole entry, looked up)": "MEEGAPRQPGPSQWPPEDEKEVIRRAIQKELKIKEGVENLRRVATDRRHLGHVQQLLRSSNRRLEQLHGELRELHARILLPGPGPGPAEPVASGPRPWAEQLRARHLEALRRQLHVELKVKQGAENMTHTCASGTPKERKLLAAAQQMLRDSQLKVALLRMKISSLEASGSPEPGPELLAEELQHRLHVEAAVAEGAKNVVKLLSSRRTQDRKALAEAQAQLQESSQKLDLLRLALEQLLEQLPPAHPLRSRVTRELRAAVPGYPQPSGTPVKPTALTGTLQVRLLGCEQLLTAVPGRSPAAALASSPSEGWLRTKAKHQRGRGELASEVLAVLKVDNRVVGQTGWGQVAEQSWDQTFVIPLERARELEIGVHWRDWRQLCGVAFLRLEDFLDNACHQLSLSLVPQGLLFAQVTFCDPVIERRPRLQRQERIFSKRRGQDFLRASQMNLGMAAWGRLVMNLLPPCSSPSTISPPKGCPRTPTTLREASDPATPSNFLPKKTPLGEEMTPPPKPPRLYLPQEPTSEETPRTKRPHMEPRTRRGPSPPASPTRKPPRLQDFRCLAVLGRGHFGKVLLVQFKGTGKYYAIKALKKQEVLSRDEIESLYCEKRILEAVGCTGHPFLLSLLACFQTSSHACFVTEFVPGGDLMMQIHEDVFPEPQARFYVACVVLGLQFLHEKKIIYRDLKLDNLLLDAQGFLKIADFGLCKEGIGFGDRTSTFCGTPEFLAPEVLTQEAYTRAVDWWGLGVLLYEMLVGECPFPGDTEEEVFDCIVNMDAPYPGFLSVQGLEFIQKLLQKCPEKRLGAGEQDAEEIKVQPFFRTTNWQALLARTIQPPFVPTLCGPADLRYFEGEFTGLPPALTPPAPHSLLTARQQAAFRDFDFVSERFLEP"}, "[30]": {"molecular_target": "ERBB3 (human) (UniProt P21860)"}, "[31]": {"molecular_target": "MAP4K3 (human) (UniProt Q8IVH8)"}, "[32]": {"molecular_target": "CHUK (human) (UniProt O15111)"}, "[33]": {"molecular_target": "MAP3K5 (human) (UniProt Q99683)"}, "[34]": {"molecular_target": "ULK2 (human) (UniProt Q8IYT8)"}, "[35]": {"molecular_target": "EPHA1 (human) (UniProt P21709)"}, "[36]": {"molecular_target": "NEK9 (human) (UniProt Q8TD19)"}, "[37]": {"molecular_target": "PIP5K1A (human) (UniProt Q99755)", "sequence (Q99755 whole entry, looked up)": "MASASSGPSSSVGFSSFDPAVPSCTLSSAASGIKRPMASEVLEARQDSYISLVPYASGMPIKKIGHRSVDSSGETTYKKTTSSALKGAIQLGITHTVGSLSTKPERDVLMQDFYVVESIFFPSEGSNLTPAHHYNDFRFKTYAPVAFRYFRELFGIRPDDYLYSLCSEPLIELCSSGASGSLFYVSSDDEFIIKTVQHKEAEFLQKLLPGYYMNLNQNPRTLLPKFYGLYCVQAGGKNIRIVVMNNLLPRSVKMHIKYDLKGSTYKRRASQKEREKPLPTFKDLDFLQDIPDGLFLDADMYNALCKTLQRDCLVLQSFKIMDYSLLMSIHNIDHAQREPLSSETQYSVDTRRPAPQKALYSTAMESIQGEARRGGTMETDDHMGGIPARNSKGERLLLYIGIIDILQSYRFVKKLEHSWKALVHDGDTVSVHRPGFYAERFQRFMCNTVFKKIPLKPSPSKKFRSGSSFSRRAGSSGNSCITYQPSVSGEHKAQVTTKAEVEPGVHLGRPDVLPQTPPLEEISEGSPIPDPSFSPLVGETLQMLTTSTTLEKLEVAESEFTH"}, "[38]": {"molecular_target": "MAP3K9 (human) (UniProt P80192)"}, "[39]": {"molecular_target": "EPHA3 (human) (UniProt P29320)"}, "[40]": {"molecular_target": "PIK3CD (human) (UniProt O00329)"}, "[41]": {"system": "EGFR (human), P00533 [G719C]"}, "[42]": {"molecular_target": "STK32C (human) (UniProt Q86UX6)", "sequence (Q86UX6 whole entry, looked up)": "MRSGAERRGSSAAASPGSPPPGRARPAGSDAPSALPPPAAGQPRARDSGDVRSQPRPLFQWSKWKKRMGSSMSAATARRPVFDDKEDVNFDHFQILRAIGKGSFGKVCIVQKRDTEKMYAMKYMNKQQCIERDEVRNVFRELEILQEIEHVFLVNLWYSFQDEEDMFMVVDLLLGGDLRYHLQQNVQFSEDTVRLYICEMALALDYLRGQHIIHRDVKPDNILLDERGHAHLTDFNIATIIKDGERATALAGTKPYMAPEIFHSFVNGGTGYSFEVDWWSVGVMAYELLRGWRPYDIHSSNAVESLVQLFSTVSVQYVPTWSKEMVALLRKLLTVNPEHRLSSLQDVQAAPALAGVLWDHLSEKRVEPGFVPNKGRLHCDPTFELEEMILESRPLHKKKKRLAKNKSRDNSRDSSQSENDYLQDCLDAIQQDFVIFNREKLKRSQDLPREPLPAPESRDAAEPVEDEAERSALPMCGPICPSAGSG"}, "[43]": {"molecular_target": "STK11 (human) (UniProt Q15831)"}}}
{"smiles": "Cc1ccc(NC(=O)c2ccc(NC(=O)/C=C/CN(C)C)cc2)cc1Nc1nccc(-c2cccnc2)n1", "values": [{"measurement": "kinase still bound, per cent of control", "setting": "[1]", "result": 77, "unit": "%"}, {"measurement": "kinase still bound, per cent of control", "setting": "[2]", "result": 4.2, "unit": "%"}, {"measurement": "kinase still bound, per cent of control", "setting": "[3]", "result": 100, "unit": "%"}, {"measurement": "kinase still bound, per cent of control", "setting": "[4]", "result": 62, "unit": "%"}, {"measurement": "kinase still bound, per cent of control", "setting": "[5]", "result": 91, "unit": "%"}, {"measurement": "kinase still bound, per cent of control", "setting": "[6]", "result": 81, "unit": "%"}, {"measurement": "kinase still bound, per cent of control", "setting": "[7]", "result": 82, "unit": "%"}, {"measurement": "kinase still bound, per cent of control", "setting": "[8]", "result": 98, "unit": "%"}, {"measurement": "kinase still bound, per cent of control", "setting": "[9]", "result": 100, "unit": "%"}, {"measurement": "kinase still bound, per cent of control", "setting": "[10]", "result": 84, "unit": "%"}, {"measurement": "kinase still bound, per cent of control", "setting": "[11]", "result": 100, "unit": "%"}, {"measurement": "kinase still bound, per cent of control", "setting": "[12]", "result": 100, "unit": "%"}, {"measurement": "kinase still bound, per cent of control", "setting": "[13]", "result": 100, "unit": "%"}, {"measurement": "kinase still bound, per cent of control", "setting": "[14]", "result": 47, "unit": "%"}, {"measurement": "kinase still bound, per cent of control", "setting": "[15]", "result": 65, "unit": "%"}, {"measurement": "kinase still bound, per cent of control", "setting": "[16]", "result": 100, "unit": "%"}, {"measurement": "kinase still bound, per cent of control", "setting": "[17]", "result": 92, "unit": "%"}, {"measurement": "kinase still bound, per cent of control", "setting": "[18]", "result": 43, "unit": "%"}, {"measurement": "kinase still bound, per cent of control", "setting": "[19]", "result": 0.4, "unit": "%"}, {"measurement": "kinase still bound, per cent of control", "setting": "[20]", "result": 81, "unit": "%"}, {"measurement": "kinase still bound, per cent of control", "setting": "[21]", "result": 97, "unit": "%"}, {"measurement": "kinase still bound, per cent of control", "setting": "[22]", "result": 100, "unit": "%"}, {"measurement": "kinase still bound, per cent of control", "setting": "[23]", "result": 100, "unit": "%"}, {"measurement": "kinase still bound, per cent of control", "setting": "[24]", "result": 64, "unit": "%"}, {"measurement": "kinase still bound, per cent of control", "setting": "[25]", "result": 93, "unit": "%"}, {"measurement": "kinase still bound, per cent of control", "setting": "[26]", "result": 100, "unit": "%"}, {"measurement": "kinase still bound, per cent of control", "setting": "[27]", "result": 77, "unit": "%"}, {"measurement": "kinase still bound, per cent of control", "setting": "[28]", "result": 100, "unit": "%"}, {"measurement": "kinase still bound, per cent of control", "setting": "[29]", "result": 86, "unit": "%"}, {"measurement": "kinase still bound, per cent of control", "setting": "[30]", "result": 100, "unit": "%"}, {"measurement": "kinase still bound, per cent of control", "setting": "[31]", "result": 78, "unit": "%"}, {"measurement": "kinase still bound, per cent of control", "setting": "[32]", "result": 70, "unit": "%"}, {"measurement": "kinase still bound, per cent of control", "setting": "[33]", "result": 100, "unit": "%"}, {"measurement": "kinase still bound, per cent of control", "setting": "[34]", "result": 30, "unit": "%"}, {"measurement": "kinase still bound, per cent of control", "setting": "[35]", "result": 91, "unit": "%"}, {"measurement": "kinase still bound, per cent of control", "setting": "[36]", "result": 100, "unit": "%"}, {"measurement": "kinase still bound, per cent of control", "setting": "[37]", "result": 8, "unit": "%"}, {"measurement": "kinase still bound, per cent of control", "setting": "[38]", "result": 100, "unit": "%"}, {"measurement": "kinase still bound, per cent of control", "setting": "[39]", "result": 83, "unit": "%"}, {"measurement": "kinase still bound, per cent of control", "setting": "[40]", "result": 95, "unit": "%"}, {"measurement": "kinase still bound, per cent of control", "setting": "[41]", "result": 45, "unit": "%"}, {"measurement": "kinase still bound, per cent of control", "setting": "[42]", "result": 80, "unit": "%"}, {"measurement": "kinase still bound, per cent of control", "setting": "[43]", "result": 92, "unit": "%"}]}
